Assay results from patent US20060058324A1, “4-Amino-5-phenyl-7-cyclohexyl-pyrrolo 2,3-d pyrimidine derivatives” (priority 2002, published 2006).

These compounds were tested against T1, human IGF-IR (Homo sapiens, UniProt P08069) (assay: cellular "Capture ELISA" test for activity against IGF-I induced IGF-IR autophosphorylation). Conditions: IGF-I (10 ng/ml) induced IGF-IR autophosphorylation in NIH-3T3 mouse fibroblasts transfected with human IGF-IR (NWT-21 cell line); 90 min compound incubation.
T1 construct: complete human IGF-IR cDNA: GenBank Acc; No. NM_000875; expressed in transfected cells; host or cells: NIH-3T3 mouse fibroblasts (NWT-21 cell line), prepared as in Kato et al., J. Biol. Chem. 268, 2655-61, 1993
Assay type: cell-based
Method: In this assay the activity of the compounds of the invention against Insulin-like growth factor I (IGF-I) induced autophosphorylation of the IGF-IR is determined. The assay is conducted as follows:
The cells which overexpress human IGF-IR are cultured in Dulbecco's minimal essential (DMEM) medium, containing 10% Fetal Calf Serum (FCS). […] On day 3 the medium is discarded and the cells are incubated for 24 h in minimal medium (DMEM, containing 0.5% FCS).
The plates are washed twice with 0.05% (v/v) Tween-20 in Phosphate-Buffered Saline (PBS) and once with nanopure H2O. […] After blocking, the plates are washed once with nanopure H2O.
After incubating the extracts and the secondary antibody for 2 h at 4° C., the extracts are discarded, the plates are washed twice with 0.05% (v/v) Tween-20 in PBS and once with nanopure water.
90 μl/well AP substrate (CDP-Star; obtained from Tropix; Cat. No.: MS100RY) are then added and the plates are incubated for 45 min at RT in the dark, followed by measuring AP activity in a Packard Top Count Microplate Scintillation Counter. The IC50 values for the compounds of formula I are calculated via linear regression analysis using the GraphPad In-stat program (GraphPad Software, USA).
Test for activity against IGF-I induced IGF-IR autophosphorylation using the cellular “Capture ELISA” test
The cellular “Capture ELISA” test is carried out as described above.

T1 sequence (P08069 31-1367): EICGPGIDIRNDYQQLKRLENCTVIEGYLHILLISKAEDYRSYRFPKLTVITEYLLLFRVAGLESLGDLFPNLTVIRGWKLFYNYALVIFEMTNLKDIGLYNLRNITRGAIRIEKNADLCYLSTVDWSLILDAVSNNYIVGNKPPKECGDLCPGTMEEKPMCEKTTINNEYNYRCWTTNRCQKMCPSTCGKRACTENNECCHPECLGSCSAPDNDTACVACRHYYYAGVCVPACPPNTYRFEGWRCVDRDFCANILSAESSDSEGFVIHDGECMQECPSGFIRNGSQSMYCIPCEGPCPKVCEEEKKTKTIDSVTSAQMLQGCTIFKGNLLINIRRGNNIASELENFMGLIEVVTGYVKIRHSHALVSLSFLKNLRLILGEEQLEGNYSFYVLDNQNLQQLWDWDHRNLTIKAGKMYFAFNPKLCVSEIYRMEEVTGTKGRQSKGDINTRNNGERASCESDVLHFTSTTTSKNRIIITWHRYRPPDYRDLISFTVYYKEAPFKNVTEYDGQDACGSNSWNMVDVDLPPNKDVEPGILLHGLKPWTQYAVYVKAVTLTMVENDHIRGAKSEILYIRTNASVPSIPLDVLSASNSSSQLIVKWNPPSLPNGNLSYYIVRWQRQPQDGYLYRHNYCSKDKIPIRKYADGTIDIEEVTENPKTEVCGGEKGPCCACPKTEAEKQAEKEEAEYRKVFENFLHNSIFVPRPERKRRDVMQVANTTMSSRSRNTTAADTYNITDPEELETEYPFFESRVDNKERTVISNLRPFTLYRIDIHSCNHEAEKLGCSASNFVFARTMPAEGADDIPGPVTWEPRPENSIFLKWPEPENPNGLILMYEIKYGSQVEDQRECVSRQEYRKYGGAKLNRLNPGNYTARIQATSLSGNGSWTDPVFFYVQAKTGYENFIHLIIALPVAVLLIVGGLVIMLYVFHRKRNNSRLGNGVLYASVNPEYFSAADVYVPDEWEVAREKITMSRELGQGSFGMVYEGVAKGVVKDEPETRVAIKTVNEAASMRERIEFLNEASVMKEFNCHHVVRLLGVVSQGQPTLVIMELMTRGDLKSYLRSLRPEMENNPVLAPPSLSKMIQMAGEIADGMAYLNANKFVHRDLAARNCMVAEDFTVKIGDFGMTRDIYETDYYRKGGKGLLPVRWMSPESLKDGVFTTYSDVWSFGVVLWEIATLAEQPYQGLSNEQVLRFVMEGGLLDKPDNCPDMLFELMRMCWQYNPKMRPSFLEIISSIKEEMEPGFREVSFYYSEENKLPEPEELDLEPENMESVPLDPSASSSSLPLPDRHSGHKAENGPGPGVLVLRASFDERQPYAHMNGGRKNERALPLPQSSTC

In order of falling IC50:
1. CCN(CC)[C@H]1CC[C@H](n2c(C)c(-c3cccc(OCc4ccccc4)c3)c3c(N)ncnc32)CC1 [Example 47, trans-5-(3-Benzyloxy-phenyl)-7-(4-diethylamino-cyclohexyl)-6-methyl-7H-Pyrrolo[2,3-d]pyrimidin-4-ylamine]  400 nM
2. Nc1ncnc2c1c(-c1cccc(OCc3ccccc3)c1)cn2[C@H]1CC[C@H](N2CCC2)CC1 [Example 11, trans-7-(4-Azetidin-1-yl-cyclohexyl)-5-(3-benzyloxy-phenyl)-7H-pyrrolo[2,3-d]pyrimidin-4-ylamine]  350 nM
3. Nc1ncnc2c1c(-c1cccc(OCc3ccccc3)c1)cn2[C@H]1CC[C@@H](N2CCC2)CC1 [Example 10, cis-7-(4-Azetidin-1-yl-cyclohexyl)-5-(3-benzyloxy-phenyl)-7H-pyrrolo[2,3-d]pyrimidin-4-ylamine]  120 nM
